According to ChEMBL document CHEMBL3885861, “Open TG-GATES”:

Organism: Rattus norvegicus
Assay: Open TG-GATES - Regimen: Single
Type: toxicity, organism-based, Sprague-Dawley
Parameters: regimen Single, gender Male, age 6 weeks
Details: in vivo, po, 1000 mg/kg, route gavage, dose level High; for APTT / Bas / Eos / Fbg / Hb / Ht / Lym / MCH / MCHC / MCV / Mono / Neu / PT / Plat / RBC / Ret / WBC: tissue Blood; for KIDNEY_L / KIDNEY_R / KIDNEY_TOTAL: tissue Kidney; for LIVER: tissue Liver; for A/G / ALP / ALT / AST / BUN / CRE / Ca / Cl / DBIL / GLC / IP / K / LDH / Na / PL / RALB / TBIL / TC / TG / TP / gamma-GTP: tissue Plasma

## CC(C)(S)[C@@H](N)C(=O)O [PENICILLAMINE]
3 h
  TERMINAL_BW: 206.7 g
  APTT: 16.4 s
  Bas: 0%
  Eos: 1%
  Fbg: 281.4 mg/dL
  Hb: 13.2 g/dL
  Ht: 40.7%
  Lym: 77%
  MCH: 20.5 pg
  MCHC: 32.3%
  MCV: 63.4 fL
  Mono: 3.2%
  Neu: 18.4%
  PT: 15.6 s
  Plat: 128.4 x10_4/uL
  RBC: 642.8 x10_4/ul
  Ret: 9.2%
  WBC: 83.2 x10_2/uL
  KIDNEY_L: 0.9 g
  KIDNEY_R: 0.9 g
  KIDNEY_TOTAL: 1.8 g
  LIVER: 8.6 g
  A/G: 0.9
  ALP: 756.4 IU/L
  ALT: 41.8 IU/L
  AST: 75.6 IU/L
  BUN: 9 mg/dL
  CRE: 0.2 mg/dL
  Ca: 10.7 mg/dL
  Cl: 104.6 meq/L
  DBIL: 0.01 mg/dL
  GLC: 187 mg/dL
  IP: 8.3 mg/dL
  K: 4.3 meq/L
  LDH: 74 IU/L
  Na: 141.4 meq/L
  PL: 141 mg/dL
  RALB: 2.5 g/dL
  TBIL: 0.032 mg/dL
  TC: 78 mg/dL
  TG: 67.2 mg/dL
  TP: 5.1 g/dL
  gamma-GTP: 1.2 IU/L
6 h
  TERMINAL_BW: 203.8 g
  APTT: 16.5 s
  Bas: 0%
  Eos: 0.6%
  Fbg: 314 mg/dL
  Hb: 13.2 g/dL
  Ht: 41%
  Lym: 71.8%
  MCH: 20.8 pg
  MCHC: 32.1%
  MCV: 64.7 fL
  Mono: 4.2%
  Neu: 22.2%
  PT: 14.8 s
  Plat: 126.9 x10_4/uL
  RBC: 635.2 x10_4/ul
  Ret: 9.5%
  WBC: 86.9 x10_2/uL
  KIDNEY_L: 0.9 g
  KIDNEY_R: 0.9 g
  KIDNEY_TOTAL: 1.8 g
  LIVER: 8 g
  A/G: 1
  ALP: 741.6 IU/L
  ALT: 35.8 IU/L
  AST: 70.8 IU/L
  BUN: 8 mg/dL
  CRE: 0.2 mg/dL
  Ca: 10.6 mg/dL
  Cl: 105.4 meq/L
  DBIL: 0.004 mg/dL
  GLC: 173.6 mg/dL
  IP: 9.3 mg/dL
  K: 4.2 meq/L
  LDH: 80.8 IU/L
  Na: 141.4 meq/L
  PL: 134.6 mg/dL
  RALB: 2.5 g/dL
  TBIL: 0.028 mg/dL
  TC: 79.8 mg/dL
  TG: 31.4 mg/dL
  TP: 5.2 g/dL
  gamma-GTP: 1 IU/L
9 h
  TERMINAL_BW: 203.4 g
  APTT: 16.5 s
  Bas: 0%
  Eos: 1%
  Fbg: 294.2 mg/dL
  Hb: 13 g/dL
  Ht: 40.6%
  Lym: 73.6%
  MCH: 20.2 pg
  MCHC: 32.2%
  MCV: 62.9 fL
  Mono: 3.2%
  Neu: 21.6%
  PT: 15.4 s
  Plat: 116 x10_4/uL
  RBC: 645 x10_4/ul
  Ret: 9%
  WBC: 82.2 x10_2/uL
  KIDNEY_L: 1 g
  KIDNEY_R: 0.9 g
  KIDNEY_TOTAL: 1.9 g
  LIVER: 7.6 g
  A/G: 1
  ALP: 664.8 IU/L
  ALT: 31.4 IU/L
  AST: 65.4 IU/L
  BUN: 7.8 mg/dL
  CRE: 0.2 mg/dL
  Ca: 10.5 mg/dL
  Cl: 107 meq/L
  DBIL: 0.01 mg/dL
  GLC: 177 mg/dL
  IP: 10.2 mg/dL
  K: 4.3 meq/L
  LDH: 67.4 IU/L
  Na: 142.6 meq/L
  PL: 127 mg/dL
  RALB: 2.5 g/dL
  TBIL: 0.036 mg/dL
  TC: 73.2 mg/dL
  TG: 21.4 mg/dL
  TP: 5.1 g/dL
  gamma-GTP: 0.8 IU/L
24 h
  TERMINAL_BW: 215.2 g
  APTT: 16.2 s
  Bas: 0%
  Eos: 1.2%
  Fbg: 291 mg/dL
  Hb: 13.4 g/dL
  Ht: 41.2%
  Lym: 75.4%
  MCH: 20.8 pg
  MCHC: 32.4%
  MCV: 64.2 fL
  Mono: 3.2%
  Neu: 19.8%
  PT: 14.2 s
  Plat: 116.1 x10_4/uL
  RBC: 642.2 x10_4/ul
  Ret: 7.1%
  WBC: 85.6 x10_2/uL
  KIDNEY_L: 0.9 g
  KIDNEY_R: 0.9 g
  KIDNEY_TOTAL: 1.9 g
  LIVER: 9.8 g
  A/G: 0.9
  ALP: 1271.2 IU/L
  ALT: 47.8 IU/L
  AST: 68 IU/L
  BUN: 14.6 mg/dL
  CRE: 0.2 mg/dL
  Ca: 11 mg/dL
  Cl: 105.2 meq/L
  DBIL: 0.012 mg/dL
  GLC: 176 mg/dL
  IP: 9 mg/dL
  K: 4.1 meq/L
  LDH: 86.8 IU/L
  Na: 143.8 meq/L
  PL: 155.6 mg/dL
  RALB: 2.6 g/dL
  TBIL: 0.028 mg/dL
  TC: 85 mg/dL
  TG: 85.2 mg/dL
  TP: 5.4 g/dL
  gamma-GTP: 0.8 IU/L
